According to ChEMBL document CHEMBL3885861, “Open TG-GATES”:

Species on record: Rattus norvegicus
Experiment: Open TG-GATES - Regimen: Daily Repeat
Format: toxicity, organism-based, Sprague-Dawley
Parameters: regimen Daily Repeat, gender Male, age 6 weeks
Settings: in vivo, po, 0 mg/kg, route gavage, dose level Control; for APTT / Bas / Eos / Fbg / Hb / Ht / Lym / MCH / MCHC / MCV / Mono / Neu / PT / Plat / RBC / Ret / WBC: tissue Blood; for KIDNEY_L / KIDNEY_R / KIDNEY_TOTAL: tissue Kidney; for LIVER: tissue Liver; for A/G / ALP / ALT / AST / BUN / CRE / Ca / Cl / DBIL / GLC / IP / K / LDH / Na / PL / RALB / TBIL / TC / TG / TP / gamma-GTP: tissue Plasma

O=c1ccc2ccccc2o1 [COUMARIN]
TERMINAL_BW (72 h, time 3 day): 197.7 g | APTT (72 h, time 3 day): 16.2 s | Bas (72 h, time 3 day): 0% | Eos (72 h, time 3 day): 1.2% | Fbg (72 h, time 3 day): 204.2 mg/dL | Hb (72 h, time 3 day): 13.4 g/dL | Ht (72 h, time 3 day): 40.7% | Lym (72 h, time 3 day): 64.8% | MCH (72 h, time 3 day): 21.6 pg | MCHC (72 h, time 3 day): 32.8% | MCV (72 h, time 3 day): 65.9 fL | Mono (72 h, time 3 day): 9.8% | Neu (72 h, time 3 day): 24.2% | PT (72 h, time 3 day): 11.8 s | Plat (72 h, time 3 day): 97.8 x10_4/uL | RBC (72 h, time 3 day): 617.8 x10_4/ul | Ret (72 h, time 3 day): 8% | WBC (72 h, time 3 day): 95.9 x10_2/uL | KIDNEY_L (72 h, time 3 day): 0.9 g | KIDNEY_R (72 h, time 3 day): 0.9 g | KIDNEY_TOTAL (72 h, time 3 day): 1.9 g | LIVER (72 h, time 3 day): 9.7 g | A/G (72 h, time 3 day): 2.1 | ALP (72 h, time 3 day): 849.4 IU/L | ALT (72 h, time 3 day): 39.8 IU/L | AST (72 h, time 3 day): 68.6 IU/L | BUN (72 h, time 3 day): 15.2 mg/dL | CRE (72 h, time 3 day): 0.5 mg/dL | Ca (72 h, time 3 day): 10.7 mg/dL | Cl (72 h, time 3 day): 104.8 meq/L | DBIL (72 h, time 3 day): 0.036 mg/dL | GLC (72 h, time 3 day): 204.6 mg/dL | IP (72 h, time 3 day): 8 mg/dL | K (72 h, time 3 day): 4.9 meq/L | LDH (72 h, time 3 day): 87.4 IU/L | Na (72 h, time 3 day): 138.8 meq/L | PL (72 h, time 3 day): 134.6 mg/dL | RALB (72 h, time 3 day): 3.8 g/dL | TBIL (72 h, time 3 day): 0.3 mg/dL | TC (72 h, time 3 day): 79.6 mg/dL | TG (72 h, time 3 day): 58.6 mg/dL | TP (72 h, time 3 day): 5.6 g/dL | gamma-GTP (72 h, time 3 day): 1 IU/L | TERMINAL_BW ([…], time 7 day): 227.5 g | TERMINAL_BW ([…], time 14 day): 286.1 g | TERMINAL_BW ([…], time 28 day): 359.5 g | APTT ([…], time 7 day): 16.5 s | Bas ([…], time 7 day): 0% | Eos ([…], time 7 day): 0.6% | Fbg ([…], time 7 day): 218.4 mg/dL | Hb ([…], time 7 day): 13.8 g/dL | Ht ([…], time 7 day): 41.6% | Lym ([…], time 7 day): 83.4% | MCH ([…], time 7 day): 21.3 pg | MCHC ([…], time 7 day): 33.2% | MCV ([…], time 7 day): 64.1 fL | Mono ([…], time 7 day): 4% | Neu ([…], time 7 day): 11.8% | PT ([…], time 7 day): 12 s | Plat ([…], time 7 day): 108.5 x10_4/uL | RBC ([…], time 7 day): 649.8 x10_4/ul | Ret ([…], time 7 day): 6.1% | WBC ([…], time 7 day): 145 x10_2/uL | APTT ([…], time 14 day): 16.7 s | Bas ([…], time 14 day): 0.2% | Eos ([…], time 14 day): 0.6% | Fbg ([…], time 14 day): 230.2 mg/dL | Hb ([…], time 14 day): 14.2 g/dL | Ht ([…], time 14 day): 42.9% | Lym ([…], time 14 day): 81% | MCH ([…], time 14 day): 20.6 pg | MCHC ([…], time 14 day): 33.2% | MCV ([…], time 14 day): 62 fL | Mono ([…], time 14 day): 7.4% | Neu ([…], time 14 day): 10.8% | PT ([…], time 14 day): 11.7 s | Plat ([…], time 14 day): 117.6 x10_4/uL | RBC ([…], time 14 day): 692.4 x10_4/ul | Ret ([…], time 14 day): 4.8% | WBC ([…], time 14 day): 114.9 x10_2/uL | APTT ([…], time 28 day): 17.8 s | Bas ([…], time 28 day): 0.2% | Eos ([…], time 28 day): 1.2% | Fbg ([…], time 28 day): 225 mg/dL | Hb ([…], time 28 day): 15.1 g/dL | Ht ([…], time 28 day): 45.2% | Lym ([…], time 28 day): 79.6% | MCH ([…], time 28 day): 19.6 pg | MCHC ([…], time 28 day): 33.4% | MCV ([…], time 28 day): 58.8 fL | Mono ([…], time 28 day): 5% | Neu ([…], time 28 day): 13.8% | PT ([…], time 28 day): 12 s | Plat ([…], time 28 day): 101 x10_4/uL | RBC ([…], time 28 day): 769 x10_4/ul | Ret ([…], time 28 day): 2.8% | WBC ([…], time 28 day): 128.8 x10_2/uL | KIDNEY_L ([…], time 7 day): 1 g | KIDNEY_R ([…], time 7 day): 1 g | KIDNEY_TOTAL ([…], time 7 day): 2 g | KIDNEY_L ([…], time 14 day): 1.2 g | KIDNEY_R ([…], time 14 day): 1.2 g | KIDNEY_TOTAL ([…], time 14 day): 2.3 g | KIDNEY_L ([…], time 28 day): 1.4 g | KIDNEY_R ([…], time 28 day): 1.4 g | KIDNEY_TOTAL ([…], time 28 day): 2.7 g | LIVER ([…], time 7 day): 11.4 g | LIVER ([…], time 14 day): 14 g | LIVER ([…], time 28 day): 16.1 g | A/G ([…], time 7 day): 2.2 | ALP ([…], time 7 day): 954.6 IU/L | ALT ([…], time 7 day): 35.6 IU/L | AST ([…], time 7 day): 58 IU/L | BUN ([…], time 7 day): 17.8 mg/dL | CRE ([…], time 7 day): 0.6 mg/dL | Ca ([…], time 7 day): 10.6 mg/dL | Cl ([…], time 7 day): 104.8 meq/L | DBIL ([…], time 7 day): 0.014 mg/dL | GLC ([…], time 7 day): 189.8 mg/dL | IP ([…], time 7 day): 7.5 mg/dL | K ([…], time 7 day): 4.9 meq/L | LDH ([…], time 7 day): 79.6 IU/L | Na ([…], time 7 day): 138.6 meq/L | PL ([…], time 7 day): 142.6 mg/dL | RALB ([…], time 7 day): 3.9 g/dL | TBIL ([…], time 7 day): 0.3 mg/dL | TC ([…], time 7 day): 70 mg/dL | TG ([…], time 7 day): 108.8 mg/dL | TP ([…], time 7 day): 5.7 g/dL | gamma-GTP ([…], time 7 day): 1.4 IU/L | A/G ([…], time 14 day): 2 | ALP ([…], time 14 day): 840.4 IU/L | ALT ([…], time 14 day): 32.4 IU/L | AST ([…], time 14 day): 59 IU/L | BUN ([…], time 14 day): 17.2 mg/dL | CRE ([…], time 14 day): 0.6 mg/dL | Ca ([…], time 14 day): 10.8 mg/dL | Cl ([…], time 14 day): 106.2 meq/L | DBIL ([…], time 14 day): 0.08 mg/dL | GLC ([…], time 14 day): 192 mg/dL | IP ([…], time 14 day): 7.5 mg/dL | K ([…], time 14 day): 4.8 meq/L | LDH ([…], time 14 day): 84.8 IU/L | Na ([…], time 14 day): 139.4 meq/L | PL ([…], time 14 day): 165.8 mg/dL | RALB ([…], time 14 day): 4 g/dL | TBIL ([…], time 14 day): 0.3 mg/dL | TC ([…], time 14 day): 84 mg/dL | TG ([…], time 14 day): 104 mg/dL | TP ([…], time 14 day): 6 g/dL | gamma-GTP ([…], time 14 day): 1.4 IU/L | A/G ([…], time 28 day): 1.7 | ALP ([…], time 28 day): 705.8 IU/L | ALT ([…], time 28 day): 31.2 IU/L | AST ([…], time 28 day): 54.2 IU/L | BUN ([…], time 28 day): 18.8 mg/dL | CRE ([…], time 28 day): 0.6 mg/dL | Ca ([…], time 28 day): 10.7 mg/dL | Cl ([…], time 28 day): 106 meq/L | DBIL ([…], time 28 day): 0.012 mg/dL | GLC ([…], time 28 day): 215 mg/dL | IP ([…], time 28 day): 6.5 mg/dL | K ([…], time 28 day): 4.5 meq/L | LDH ([…], time 28 day): 51 IU/L | Na ([…], time 28 day): 138.8 meq/L | PL ([…], time 28 day): 137.4 mg/dL | RALB ([…], time 28 day): 4 g/dL | TBIL ([…], time 28 day): 0.3 mg/dL | TC ([…], time 28 day): 63 mg/dL | TG ([…], time 28 day): 126 mg/dL | TP ([…], time 28 day): 6.4 g/dL | gamma-GTP ([…], time 28 day): 1 IU/L
